Laboratory results reported in patent publication US12012411B2, “Viral replication inhibitors” (Katholieke Universiteit Leuven, priority 2011, dated 2024).
pEC50: −log10 of the molar value.

test system: not listed separately; test: in vitro; conditions: African green monkey

Row | SMILES | CC50 [µM]
1 | COc1cccc(NC(C(=O)c2cn(CCO)c3ccccc23)c2ccccc2)c1 (stereo not shown) [CPD-104] | 65
2 | COc1cccc(NC(C(=O)c2cn(CCCO)c3ccccc23)c2ccccc2)c1 (stereo not shown) [CPD-128] | 63
3 | COc1cc(NC(C(=O)c2cn(CCCO)c3ccccc23)c2ccccc2)cc(OC)c1 (stereo not shown) [CPD-210] | 13
4 | COc1cccc(NC(C(=O)c2nn(CCO)c3ccccc23)c2ccccc2)c1 (stereo not shown) [CPD-303] | 71

same assay, conditions: African green monkey, uninfected quiescent Vero-B cells

Row | SMILES | CC50 at 4 days [µM]
5 | COc1cncc(NC(C(=O)c2c[nH]c3ccccc23)c2ccccc2)c1 (single isomer, unassigned) [CPD-299] | 62
6 | COc1cncc(NC(C(=O)c2c[nH]c3ccc(F)cc23)c2ccc(OC)nc2)c1 (single isomer, unassigned) [CPD-322] | 51
7 | COc1cc(NC(C(=O)c2c[nH]c3ccccc23)c2ccccc2)ccc1Cl (stereo not shown) [CPD-004] | 11
8 | COc1cccc(NC(C(=O)c2c[nH]c3ccccc23)c2cc(C)on2)c1 (stereo not shown) [CPD-025] | 48
9 | COc1cccc(NC(C(=O)c2c[nH]c3ccccc23)c2cncnc2)c1 (stereo not shown) [CPD-029] | 65
10 | COc1cccc(NC(C(=O)c2c[nH]c3ccccc23)c2cn3ccccc3n2)c1 (stereo not shown) [CPD-030] | > 126
11 | COc1cccc(NC(C(=O)c2c[nH]c3ccccc23)c2cccc3ccnn23)c1 (stereo not shown) [CPD-043] | > 126
12 | COc1cc(NC(C(=O)c2c[nH]c3ccccc23)c2ccccc2)ccn1 (stereo not shown) [CPD-045] | > 139

test system: DENV-4 strain Dak HD 34 460; test: Antiviral activity against DENV-4 in Vero-B cells (viral RNA load by RT-qPCR); type: cell-based, Dengue virus; conditions: Dengue virus, DENV4, Vero B

Row | SMILES | pEC50
13 | COc1cncc(NC(C(=O)c2c[nH]c3ccccc23)c2ccccc2)c1 (single isomer, unassigned) [CPD-299] | 5.44
14 | COc1cncc(NC(C(=O)c2c[nH]c3ccc(F)cc23)c2ccc(OC)nc2)c1 (single isomer, unassigned) [CPD-322] | 5.52
15 | COc1cccc(NC(C(=O)c2c[nH]c3ccccc23)c2cc(C)on2)c1 (stereo not shown) [CPD-025] | 4.93
16 | COc1cccc(NC(C(=O)c2c[nH]c3ccccc23)c2cn3ccccc3n2)c1 (stereo not shown) [CPD-030] | 4.88
17 | COc1cccc(NC(C(=O)c2c[nH]c3ccccc23)c2cccc3ccnn23)c1 (stereo not shown) [CPD-043] | 5.32
18 | COc1cc(NC(C(=O)c2c[nH]c3ccccc23)c2ccccc2)ccn1 (stereo not shown) [CPD-045] | 4.96
19 | COc1cccc(NC(C(=O)c2cn(CCO)c3ccccc23)c2ccccc2)c1 (stereo not shown) [CPD-104] | 4.83

test system: DENV-3 strain H87 prototype; test: Antiviral activity against DENV-3 in Vero-B cells (viral RNA load by RT-qPCR); type: cell-based, Dengue virus; conditions: not given

Row | SMILES | pEC50
20 | COc1cncc(NC(C(=O)c2c[nH]c3ccccc23)c2ccccc2)c1 (single isomer, unassigned) [CPD-299] | 6.11
21 | COc1cncc(NC(C(=O)c2c[nH]c3ccc(F)cc23)c2ccc(OC)nc2)c1 (single isomer, unassigned) [CPD-322] | 6.49

same assay, conditions: Dengue virus, DENV3, Vero B

Row | SMILES | pEC50
22 | COc1cc(NC(C(=O)c2c[nH]c3ccccc23)c2ccccc2)ccc1Cl (stereo not shown) [CPD-004] | 5.07
23 | COc1cccc(NC(C(=O)c2c[nH]c3ccccc23)c2cc(C)on2)c1 (stereo not shown) [CPD-025] | 4.89
24 | COc1cccc(NC(C(=O)c2c[nH]c3ccccc23)c2cn3ccccc3n2)c1 (stereo not shown) [CPD-030] | 5.20
25 | COc1cccc(NC(C(=O)c2c[nH]c3ccccc23)c2cccc3ccnn23)c1 (stereo not shown) [CPD-043] | 5.23
26 | COc1cc(NC(C(=O)c2c[nH]c3ccccc23)c2ccccc2)ccn1 (stereo not shown) [CPD-045] | 6.06
27 | COc1cccc(NC(C(=O)c2cn(CCO)c3ccccc23)c2ccccc2)c1 (stereo not shown) [CPD-104] | 4.62
28 | COc1cccc(NC(C(=O)c2cn(CCCO)c3ccccc23)c2ccccc2)c1 (stereo not shown) [CPD-128] | 4.74

test system: DENV-2 NGC; test: Antiviral activity against DENV-2 NGC in Vero-B cells (viral RNA load by RT-qPCR); type: cell-based, Dengue virus; conditions: DENV-2 in Vero-B cells; inhibition of viral RNA replication by 50% (Table 3)

Row | SMILES | pEC50
29 | COc1cncc(NC(C(=O)c2c[nH]c3ccccc23)c2ccccc2)c1 (single isomer, unassigned) [CPD-299] | 7.70
30 | COc1cncc(NC(C(=O)c2c[nH]c3ccc(F)cc23)c2ccc(OC)nc2)c1 (single isomer, unassigned) [CPD-322] | 7.70

same assay, conditions: Dengue virus, DENV2, Vero B, DENV-2 in Vero-B cells; inhibition of viral RNA replication by 50% (Table 3)

Row | SMILES | pEC50
31 | COc1cc(NC(C(=O)c2c[nH]c3ccccc23)c2ccccc2)ccc1Cl (stereo not shown) [CPD-004] | 6.72
32 | COc1cccc(NC(C(=O)c2c[nH]c3ccccc23)c2cc(C)on2)c1 (stereo not shown) [CPD-025] | 6.17
33 | COc1cccc(NC(C(=O)c2c[nH]c3ccccc23)c2cncnc2)c1 (stereo not shown) [CPD-029] | 6.08
34 | COc1cccc(NC(C(=O)c2c[nH]c3ccccc23)c2cn3ccccc3n2)c1 (stereo not shown) [CPD-030] | 7.05
35 | COc1cccc(NC(C(=O)c2c[nH]c3ccccc23)c2cccc3ccnn23)c1 (stereo not shown) [CPD-043] | 6.54
36 | COc1cc(NC(C(=O)c2c[nH]c3ccccc23)c2ccccc2)ccn1 (stereo not shown) [CPD-045] | 7.22
37 | COc1cccc(NC(C(=O)c2cn(CCO)c3ccccc23)c2ccccc2)c1 (stereo not shown) [CPD-104] | 6.46
38 | COc1cccc(NC(C(=O)c2cn(CCCO)c3ccccc23)c2ccccc2)c1 (stereo not shown) [CPD-128] | 6.25
39 | COc1cc(NC(C(=O)c2cn(CCCO)c3ccccc23)c2ccccc2)cc(OC)c1 (stereo not shown) [CPD-210] | 6.70
40 | COc1cccc(NC(C(=O)c2nn(CCO)c3ccccc23)c2ccccc2)c1 (stereo not shown) [CPD-303] | 6.28

test system: DENV-1 Djibouti strain D1/H/IMTSSA/98/606; test: Antiviral activity against DENV-1 in Vero-B cells (viral RNA load by RT-qPCR); type: cell-based, Dengue virus; conditions: not given

Row | SMILES | pEC50
41 | COc1cncc(NC(C(=O)c2c[nH]c3ccccc23)c2ccccc2)c1 (single isomer, unassigned) [CPD-299] | 6.30
42 | COc1cncc(NC(C(=O)c2c[nH]c3ccc(F)cc23)c2ccc(OC)nc2)c1 (single isomer, unassigned) [CPD-322] | 6.52

same assay, conditions: Dengue virus, DENV1, Vero B

Row | SMILES | pEC50
43 | COc1cc(NC(C(=O)c2c[nH]c3ccccc23)c2ccccc2)ccc1Cl (stereo not shown) [CPD-004] | 5.34
44 | COc1cccc(NC(C(=O)c2c[nH]c3ccccc23)c2cc(C)on2)c1 (stereo not shown) [CPD-025] | 5.10
45 | COc1cccc(NC(C(=O)c2c[nH]c3ccccc23)c2cncnc2)c1 (stereo not shown) [CPD-029] | 5.55
46 | COc1cccc(NC(C(=O)c2c[nH]c3ccccc23)c2cn3ccccc3n2)c1 (stereo not shown) [CPD-030] | 5.32
47 | COc1cccc(NC(C(=O)c2c[nH]c3ccccc23)c2cccc3ccnn23)c1 (stereo not shown) [CPD-043] | 5.47
48 | COc1cc(NC(C(=O)c2c[nH]c3ccccc23)c2ccccc2)ccn1 (stereo not shown) [CPD-045] | 6.19
49 | COc1cccc(NC(C(=O)c2cn(CCO)c3ccccc23)c2ccccc2)c1 (stereo not shown) [CPD-104] | 5.41
50 | COc1cccc(NC(C(=O)c2cn(CCCO)c3ccccc23)c2ccccc2)c1 (stereo not shown) [CPD-128] | 5.12
51 | COc1cc(NC(C(=O)c2cn(CCCO)c3ccccc23)c2ccccc2)cc(OC)c1 (stereo not shown) [CPD-210] | 5.99
52 | COc1cccc(NC(C(=O)c2nn(CCO)c3ccccc23)c2ccccc2)c1 (stereo not shown) [CPD-303] | 5.49
